Earlier results as cited in US20090176772A1, “METHOD OF REVERSING LEFT VENTRICULAR REMODELING” (priority 2004, published 2009).

Tested on: LV reverse remodeling
Details: historical data, Sabbah et al. (1994) Circ. 89:2852-2859; cited from earlier work

Row | Compound | Ability to reduce LV end-diastolic volume (FIG. 1) | Ability to reduce LV end-systolic volume (FIG. 2)
1 | CCOC(=O)[C@H](CCc1ccccc1)N[C@@H](C)C(=O)N1CCC[C@H]1C(=O)O [enalapril] | neither ranolazine, enalapril, nor metoprolol were independently able to reduce LV end-diastolic volume | neither ranolazine, enalapril, nor metoprolol appear to independently reduce LV end-systolic volume
2 | COCCc1ccc(OCC(O)CNC(C)C)cc1 (stereo not shown) [metoprolol] | neither ranolazine, enalapril, nor metoprolol were independently able to reduce LV end-diastolic volume | neither ranolazine, enalapril, nor metoprolol appear to independently reduce LV end-systolic volume
